40 molecules from US11440909B2, “10H-phenothiazine ferroptosis inhibitor as well as the preparative method and the use thereof” (CHENGDU HENGHAO INVESTMENT CO. LIMITED, priority 2018, dated 2022) can be followed below.

One experiment has as its system fibrosarcoma cell line HT1080. The experiment in a line: Ferroptosis screening model (MTT method), Erastin-induced ferroptosis. The settings on record: HT1080, ferroptosis inducer Erastin, 72 h, average of three tests, read-out: EC50. The class given is cell-based, human. A digest of the protocol:
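HT1080 cells adhered 24 h, then received compound plus Erastin ([…] final) for 72 h at 37 °C, 5% CO2, in triplicate. Viability by MTT with SDS solubilisation, absorbance at 570 nm; inhibition of ferroptosis fitted to give EC50.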
In general, EC50 refers to the concentration at which the effect is half-maximal. Turning to `CC(c1ccc2c(c1)Nc1ccccc1S2)S(=O)(=O)N1CCN(C(=O)c2ccc3c(c2)OCCO3)CC1` (stereo not shown) [Compound C19, (4-((1-(10H-phenothiazin-2-yl)ethyl)sulfonyl)piperazin-1-yl)(2,3-dihydrobenzo[b][1,4]dioxane-6-yl)ketone], the EC50 worked out at 0.129 µM.

As for `COc1ccccc1N1CCN(S(=O)(=O)C(C)c2ccc3c(c2)Nc2ccccc2S3)CC1` (stereo not shown) [Compound C22, 2-(1-((4-(2-methoxylphenyl)piperazin-1-yl)sulfonyl)ethyl)-10H-phenothiazine], the half-maximal effective concentration (EC50) came out at 0.73 µM.

Regarding `CC(c1ccc2c(c1)Nc1ccccc1S2)S(=O)(=O)N1CCN(c2ccccc2)CC1` (stereo not shown) [Compound C24, 2-(1-((4-phenylpiperazin-1-yl)sulfonyl)ethyl)-10H-phenothiazine], the concentration for a half-maximal effect (EC50) turned out to be 0.417 µM.

With `CC(c1ccc2c(c1)Nc1ccccc1S2)S(=O)(=O)N1CCN(c2ccccc2)CC1` (stereo not shown) [Compound C28, 2-(1-((4-phenylpiperazin-1-yl)sulfonyl)ethyl)-10H-phenothiazine], the EC50 stood at 0.142 µM.

Regarding `CC(c1ccc2c(c1)Nc1ccccc1S2)S(=O)(=O)N1CC[C@H](CNC(=O)OC(C)(C)C)C1` (stereo partly drawn) [Compound C33, t-butyl (((3R)-1-((1-(10H-phenothiazin-2-yl)ethyl)sulfonyl)pyrrolin-3-yl)methyl)carbamate], the EC50 came to 0.327 µM.

The experiment is the same for the next values; noted with them: Homo sapiens, HT-1080, 72 h, HT1080, ferroptosis inducer Erastin, 72 h, average of three tests, read-out: EC50.
As for `C=C(c1cccc(S(=O)(=O)NC2CCOCC2)c1)c1ccc2c(c1)Nc1ccccc1S2` [Compound B55, 3-(1-(10H-phenothiazin-2-yl)ethenyl)-N-(tetrahydro-2H-pyran-4-yl)benzenesulfonamide], the half-maximal effective concentration (EC50) was found to be 0.012 µM.

Take `C=C(c1ccc(S(=O)(=O)NCC2CCOCC2)cc1)c1ccc2c(c1)Nc1ccccc1S2` [Compound B56, 4-(1-(10H-phenothiazin-2-yl)ethenyl)-N-((tetrahydro-2H-pyran-4-yl)methyl)Benzenesulfonamide]: the EC50 was determined as 0.022 µM.

For the molecule `C=C(c1ccc(S(=O)(=O)N2CCOCC2)cc1)c1ccc2c(c1)Nc1ccccc1S2` [Compound B57, 4-((4-(1-(10H-phenothiazin-2-yl)ethenyl)phenyl)sulfonyl)morpholine], the EC50 stood at 0.034 µM.

Turning to `C=C(c1ccc(S(=O)(=O)NC2CCC2)cc1)c1ccc2c(c1)Nc1ccccc1S2` [Compound B58, 4-(1-(10H-phenothiazin-2-yl)ethenyl)-N-cyclobutylbenzenesulfonamide], the EC50 was found to be 0.066 µM.

Turning to `C=C(c1ccc(S(=O)(=O)NC2CCN(C)CC2)cc1)c1ccc2c(c1)Nc1ccccc1S2` [Compound B59, 4-(1-(10H-phenothiazin-2-yl)ethenyl)-N-(1-methylpiperidin-4-yl)Benzenesulfonamide], the EC50 stood at 0.0002 µM.

In the case of `CC(c1ccc2c(c1)Nc1ccccc1S2)S(=O)(=O)N1CCOCC1` (stereo not shown) [Compound C1, 4-((1-(10H-phenothiazin-2-yl)ethyl)sulfonyl)morpholine], the EC50 was 0.068 µM.

For the molecule `CC(c1ccc2c(c1)Nc1ccccc1S2)S(=O)(=O)N1CCN(C)CC1` (stereo not shown) [Compound C2, 2-(1-((4-methylpiperazin-1-yl)sulfonyl)ethyl)-10H-phenothiazine], the 50% effective concentration (EC50) was found to be 0.034 µM.

Regarding `CC(c1ccc2c(c1)Nc1ccccc1S2)S(=O)(=O)N1CCCN(C)CC1` (stereo not shown) [Compound C3, 2-(1-((4-methyl-1,4-homopiperazin-1-yl)sulfonyl)ethyl)-10H-phenothiazine], the half-maximal effective concentration (EC50) turned out to be 0.009 µM.

On to `CC(C)N1CCN(S(=O)(=O)C(C)c2ccc3c(c2)Nc2ccccc2S3)CC1` (stereo not shown) [Compound C4, 2-(1-((4-isopropylpiperazin-1-yl)sulfonyl)ethyl)-10H-phenothiazine], for which the 50% effective concentration (EC50) was 0.029 µM.

For `CC(c1ccc2c(c1)Nc1ccccc1S2)S(=O)(=O)N1CCN(Cc2ccc3c(c2)OCO3)CC1` (stereo not shown) [Compound C5, 2-(1-((4-(benzo[d][1,3]dioxa-5-ylmethyl)piperazin-1-yl)sulfonyl)ethyl)-10H-phenothiazine], the EC50 came out at 0.035 µM.

`CC(c1ccc2c(c1)Nc1ccccc1S2)S(=O)(=O)N1CCN(CC(=O)N2CCCC2)CC1` (stereo not shown) [Compound C6, 2-(4-((1-(10H-phenothiazin-2-yl)ethyl)sulfonyl)piperazin-1-yl)-1-(pyrrolin-1-yl)-1-ethanone]: the EC50 was found to be 0.185 µM.

`CC(c1ccc2c(c1)Nc1ccccc1S2)S(=O)(=O)N1CCN(CCCN(C)C)CC1` (stereo not shown) [Compound C7, 3-(4-((1-(10H-phenothiazin-2-yl)ethyl)sulfonyl)piperazin-1-yl)-N,N-dimethylpropan-1-amine]: the EC50 came out at 0.046 µM.

Regarding `CC(c1ccc2c(c1)Nc1ccccc1S2)S(=O)(=O)N1C2CCC1CC(O)C2` (stereo not shown) [Compound C8, 8-((1-(10H-phenothiazin-2-yl)ethyl)sulfonyl)-8-azabicyclo[3.2.1]-3-octanol], the 50% effective concentration (EC50) was 0.046 µM.

`CC(c1ccc2c(c1)Nc1ccccc1S2)S(=O)(=O)N1CCN(CCc2ccccc2)CC1` (stereo not shown) [Compound C9, 2-(1-((4-phenethylpiperazin-1-yl)sulfonyl)ethyl)-10H-phenothiazine]: the EC50 is 0.085 µM.

Take `CCN1CCN(S(=O)(=O)C(C)c2ccc3c(c2)Nc2ccccc2S3)CC1` (stereo not shown) [Compound C10, 2-(1-((4-ethylpiperazin-1-yl)sulfonyl)ethyl)-10H-phenothiazine]: the half-maximal effective concentration (EC50) is 0.017 µM.

For `CC(c1ccc2c(c1)Nc1ccccc1S2)S(=O)(=O)N1CCN(C(=O)C2CCCO2)CC1` (stereo not shown) [Compound C11, (4-((1-(10H-phenothiazin-2-yl)ethyl)sulfonyl)piperazin-1-yl)(tetrahydrofuran-2-yl)ketone], the EC50 came to 0.269 µM.

For `CC(c1ccc2c(c1)Nc1ccccc1S2)S(=O)(=O)N1CCN(CCN2CCOCC2)CC1` (stereo not shown) [Compound C12, 4-(2-(4-((1-(10H-phenothiazin-2-yl)ethyl)sulfonyl)piperazin-1-yl)ethyl)morpholine], the EC50 was found to be 0.076 µM.

With `CC(c1ccc2c(c1)Nc1ccccc1S2)S(=O)(=O)N1CCN(CCO)CC1` (stereo not shown) [Compound C13, 2-(4-((1-(10H-phenothiazin-2-yl)ethyl)sulfonyl)piperazin-1-yl)-1-ethanol], the EC50 was found to be 0.062 µM.

Turning to `CC(c1ccc2c(c1)Nc1ccccc1S2)S(=O)(=O)N1CC[C@@H](O)C1` (stereo partly shown) [Compound C14], the EC50 was 0.26 µM.

For the molecule `CC(=O)N1CCN(S(=O)(=O)C(C)c2ccc3c(c2)Nc2ccccc2S3)CC1` (stereo not shown) [Compound C15, 1-(4-((1-(10H-phenothiazin-2-yl)ethyl)sulfonyl)piperazin-1-yl)-1-ethanone], the EC50 worked out at 0.132 µM.

As for `CC(c1ccc2c(c1)Nc1ccccc1S2)S(=O)(=O)N1CCN(S(C)(=O)=O)CC1` (stereo not shown) [Compound C16, 2-(1-((4-(methylsulfonyl)piperazin-1-yl)sulfonyl)ethyl)-10H-phenothiazine], the half-maximal effective concentration (EC50) turned out to be 0.035 µM.

Consider `CC(c1ccc2c(c1)Nc1ccccc1S2)S(=O)(=O)N1CCN(c2ccncc2)CC1` (stereo not shown) [Compound C17, 2-(1-((4-(pyridin-4-yl)piperazin-1-yl)sulfonyl)ethyl)-10H-phenothiazine], for which the concentration giving a half-maximal response (EC50) is 0.005 µM.

For `CC(c1ccc2c(c1)Nc1ccccc1S2)S(=O)(=O)N1CCC(O)CC1` (stereo not shown) [Compound C18, 1-((1-(10H-phenothiazin-2-yl)ethyl)sulfonyl)-4-piperidinol], the EC50 was determined as 0.079 µM.

Consider `CC(c1ccc2c(c1)Nc1ccccc1S2)S(=O)(=O)N1CCSCC1` (stereo not shown) [Compound C20, 2-(1-(thiomorpholinesulfonyl)ethyl)-10H-phenothiazine], for which the EC50 was found to be 0.031 µM.

With `CC(c1ccc2c(c1)Nc1ccccc1S2)S(=O)(=O)N1CCCC1` (stereo not shown) [Compound C21], the concentration giving a half-maximal response (EC50) turned out to be 0.257 µM.

Consider `CCOC(=O)C1CCN(S(=O)(=O)C(C)c2ccc3c(c2)Nc2ccccc2S3)CC1` (stereo not shown) [Compound C23], for which the 50% effective concentration (EC50) is 0.62 µM.

As to `CC(=O)N1CCCN(S(=O)(=O)C(C)c2ccc3c(c2)Nc2ccccc2S3)CC1` (stereo not shown) [Compound C25, 1-(4-((1-(10H-phenothiazin-2-yl)ethyl)sulfonyl)-1,4-homopiperazin-1-yl)-1-ethanone], the EC50 was 0.405 µM.

For the molecule `CC(c1ccc2c(c1)Nc1ccccc1S2)S(=O)(=O)N1CCN(C(c2ccccc2)c2ccccc2)CC1` (stereo not shown) [Compound C26, 2-(1-((4-diphenylmethylpiperazin-1-yl)sulfonyl)ethyl)-10H-phenothiazine], the EC50 turned out to be 0.388 µM.

Turning to `CC(c1ccc2c(c1)Nc1ccccc1S2)S(=O)(=O)N1CCN(NC(=O)OC(C)(C)C)CC1` (stereo not shown) [Compound C27, t-butyl 4-((1-(10H-phenothiazin-2-yl)ethyl)sulfonyl)piperazin-1-carbamate], the EC50 came to 0.256 µM.

In the case of `CC(c1ccc2c(c1)Nc1ccccc1S2)S(=O)(=O)N1CCC[C@H](NC(=O)OC(C)(C)C)C1` (stereo partly drawn) [Compound C29, t-butyl ((3S)-1-((1-(10H-phenothiazin-2-yl)ethyl)sulfonyl)piperidin-3-yl) carbamate], the EC50 amounted to 0.228 µM.

In the case of `CC(c1ccc2c(c1)Nc1ccccc1S2)S(=O)(=O)N1CCC(O)(c2ccc(Cl)cc2)CC1` (stereo not shown) [Compound C30, 1-((1-(10H-phenothiazin-2-yl)ethyl)sulfonyl)-4-(4-chlorophenyl)-4-piperidinol], the concentration for a half-maximal effect (EC50) was 0.095 µM.

For the molecule `CC(c1ccc2c(c1)Nc1ccccc1S2)S(=O)(=O)N1CC[C@H](NC(=O)OC(C)(C)C)C1` (stereo partly drawn) [Compound C31, t-butyl ((3S)-1-((1-(10H-phenothiazin-2-yl)ethyl)sulfonyl)pyrrolin-3-yl)carbamate], the 50% effective concentration (EC50) came out at 0.399 µM.

As to `CC(c1ccc2c(c1)Nc1ccccc1S2)S(=O)(=O)N1CCC[C@@H](NC(=O)OC(C)(C)C)C1` (stereo partly drawn) [Compound C32, t-butyl ((3R)-1-((1-(10H-phenothiazin-2-yl)ethyl)sulfonyl)piperidin-3-yl)carbamate], the half-maximal effective concentration (EC50) was 0.586 µM.

For `CC(c1ccc2c(c1)Nc1ccccc1S2)S(=O)(=O)N1CCN(c2ccc(F)cc2)CC1` (stereo not shown) [Compound C34, 2-(1-((4-(4-fluorophenyl)piperazin-1-yl)sulfonyl)ethyl)-10H-phenothiazine], the concentration giving a half-maximal response (EC50) is 0.233 µM.

Consider `CC(c1ccc2c(c1)Nc1ccccc1S2)S(=O)(=O)N1CCCC(CNC(=O)OC(C)(C)C)C1` (stereo not shown) [Compound C35, t-butyl ((1-((1-(10H-phenothiazin-2-yl)ethyl)sulfonyl)piperidin-3-yl)methyl)carbamate], for which the concentration for a half-maximal effect (EC50) amounted to 0.342 µM.
